According to the supplement of paper PMC5844555:

What was measured:
Test in all cases: 3' UTR reporter interaction score (median-centred robust z-score of log2 firefly/Renilla activity); higher = less repression of the 3' UTR reporter
Conditions in all cases: HEK293T; 48 h
BRCA2 = test system: BRCA2
Procedure, shortened: (§1)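 Firefly and Renilla luciferase activities were read 48 h post-transfection in HEK293T cells (10,000/well, 96-well plates). The cells had received 100 ng firefly luc2P reporter bearing the gene's 3' UTR, 20 ng Renilla pRL-TK control and 2.5 pmol miRNA mimic via DharmaFECT Duo. The interaction score, where more negative means interaction, is a per-plate robust z-score (median, median absolute deviation) of the log firefly/Renilla ratio, median-centred per miRNA and averaged over at least two independent screens.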

FBXW7 = test system: FBXW7
Procedure, shortened: as §1

HRAS = test system: HRAS
Procedure, shortened: as §1

MYB = test system: MYB
Procedure, shortened: as §1

MYCN = test system: MYCN
Procedure, shortened: as §1

MYC = test system: MYC
Procedure, shortened: as §1

MYT1L = test system: MYT1L
Procedure, shortened: as §1

NOTCH1 = test system: NOTCH1
Procedure, shortened: as §1

PHF6 = test system: PHF6
Procedure, shortened: as §1

PHOX2B = test system: PHOX2B
Procedure, shortened: as §1

RB1 = test system: RB1
Procedure, shortened: as §1

TP53 = test system: TP53
Procedure, shortened: as §1

ZEB2 = test system: ZEB2
Procedure, shortened: as §1

EZH2 = test system: EZH2
Procedure, shortened: as §1

Sequence	3' UTR reporter interaction score (BRCA2)	3' UTR reporter interaction score (FBXW7)	3' UTR reporter interaction score (HRAS)	3' UTR reporter interaction score (MYB)	3' UTR reporter interaction score (MYCN)	3' UTR reporter interaction score (MYC)	3' UTR reporter interaction score (MYT1L)	3' UTR reporter interaction score (NOTCH1)	3' UTR reporter interaction score (PHF6)	3' UTR reporter interaction score (PHOX2B)	3' UTR reporter interaction score (RB1)	3' UTR reporter interaction score (TP53)	3' UTR reporter interaction score (ZEB2)	3' UTR reporter interaction score (EZH2)
AAAACGGUGAGAUUUUGUUUU	-0.776	0.403	-0.201	0.737	0.148	0.0587	-0.225	-1.23	-0.604	1.39	-1.03	-0.39	0.0197	–
AAACCGUUACCAUUACUGAGUUU	0.378	-0.543	-0.683	–	-0.445	-0.972	1.68	-0.371	0.358	-1.13	-0.236	0.812	0.377	0.71
AAAGUGCUGUUCGUGCAGGUAG	-0.619	0.872	-0.586	-1.38	-0.359	-0.0736	-1.47	0.83	0.684	1.63	0.0538	0.803	-0.0741	–
AAAGUGCUUCCUUUUAGAGGC	-0.921	0.555	-0.194	-0.24	0.692	-0.277	-0.527	–	-0.00693	0.798	0.31	0.32	0.738	-0.74
AAAGUGCUUCUCUUUGGUGGGUU	0.0116	0.685	0.266	-0.782	–	-0.26	-0.567	0.392	-0.0534	1.31	0.799	0.499	0.955	-1.56
AACAUUCAUUGCUGUCGGUGGG	0.08	0.243	-0.854	0.0638	–	0.124	-0.567	-0.249	0.159	1.46	0.0638	0.443	0.114	0.0847
AAUAUAACACAGAUGGCCUGU	-0.646	0.647	0.155	-0.573	–	0.886	-0.827	0.989	–	0.795	-1.07	0.139	-0.625	0.634
AAUUGCACGGUAUCCAUCUGUA	0.52	-6.72	0.777	0.44	0.653	1.4	–	-0.751	0.891	-1.97	1.19	-1.12	-3.51	-0.862
ACUUUAACAUGGAAGUGCUUUCU	0.253	–	-0.0142	-0.31	-0.0564	0.48	0.13	-0.363	-0.0712	-0.178	–	0.121	-0.795	0.735
AGAUCAGAAGGUGAUUGUGGCU	0.117	1.15	0.462	-2.02	-0.0131	-0.231	–	0.74	1.45	-0.105	-1	0.622	-0.441	0.782
AGGCACCAGCCAGGCAUUGCUCAGC	–	-2.35	-0.411	0.348	-0.343	-0.313	0.327	-0.1	0.574	-2.66	0.342	0.444	-0.849	1
AUGUAUAAAUGUAUACACAC	0.174	0.329	0.0947	-0.578	-0.0355	-0.0623	–	-1.28	-0.348	0.0154	-0.33	1.38	-1.04	0.905
CAAAAACCACAGUUUCUUUUGC	–	-0.0284	-1.1	-1.54	0.186	0.0969	-0.79	-0.821	0.268	0.417	0.189	-0.323	-0.847	0.177
CAAGAACCUCAGUUGCUUUUGU	-0.995	-0.0454	1.03	0.335	–	0.13	-0.132	-0.974	-0.741	-0.954	–	0.405	-1.03	0.928
CACGCUCAUGCACACACCCAC	0.0228	-1.61	–	–	-0.371	0.38	0.0877	0.398	-3.04	-1.58	-0.279	1.21	1.26	0.315
CAGUGCAAUAGUAUUGUCAAAGC	0.327	0.383	–	-1.09	0.282	-0.162	-1.35	1.2	1.54	-0.134	1.9	-0.369	-0.0807	-0.946
CAUUAUUACUUUUGGUACGCG	-0.00235	0.0986	0.225	0.454	–	-0.4	-0.409	-0.00418	-0.223	0.437	0.974	0.0619	0.0582	0.119
CUCCUGACUCCAGGUCCUGUGU	0.612	-0.332	0.32	0.427	-0.0476	1.1	–	0.232	-4.57	-0.0385	0.546	0.342	-1.51	-0.51
GGCAGGUUCUCACCCUCUCUAGG	-0.0484	-1.49	0.517	–	0.446	0.583	-0.84	0.309	-0.606	-1.4	–	-0.0357	-0.268	0.162
GGCUAGCAACAGCGCUUACCU	-0.392	0.164	-0.311	-0.249	0.326	-0.989	0.317	-0.508	-0.414	0.192	0.235	0.432	0.537	–
GGUCCAGAGGGGAGAUAGG	-0.441	-0.103	–	-0.834	-0.926	-0.219	0.466	0.349	0.39	-0.69	-0.274	0.186	-0.0605	-0.024

Sequence	3' UTR reporter interaction score (BRCA2)	3' UTR reporter interaction score (FBXW7)	3' UTR reporter interaction score (HRAS)	3' UTR reporter interaction score (MYB)	3' UTR reporter interaction score (MYCN)	3' UTR reporter interaction score (MYC)	3' UTR reporter interaction score (MYT1L)	3' UTR reporter interaction score (NOTCH1)	3' UTR reporter interaction score (PHF6)	3' UTR reporter interaction score (PHOX2B)	3' UTR reporter interaction score (RB1)	3' UTR reporter interaction score (TP53)	3' UTR reporter interaction score (ZEB2)	3' UTR reporter interaction score (EZH2)
UAAAGUGCUUAUAGUGCAGGUAG	1.9	-0.632	0.379	-0.124	-0.791	-0.207	-0.414	0.917	1.96	–	0.204	-0.181	0.262	-0.364
UAAGGCACCCUUCUGAGUAGA	0.5	0.601	0.999	–	-0.435	-0.593	1.04	-0.104	-0.903	1.39	-1.28	-0.0578	0.807	-2.69
UACGUCAUCGUUGUCAUCGUCA	0.347	0.256	0.167	-0.203	-1.02	-0.111	–	-0.131	-0.457	0.31	0.229	0.00955	-2.2	-0.223
UAGCAGCACAUAAUGGUUUGUG	-0.161	-3.3	1.55	-1.32	-0.121	1.03	-2.1	0.0154	1	0.742	-0.091	-0.405	1.33	–
UAGGUAGUUUCCUGUUGUUGG	-0.449	-0.0724	-0.324	0.0231	–	-0.416	-0.34	0.244	-0.855	0.179	-0.415	0.913	0.639	0.324
UAGUAGACCGUAUAGCGUACG	-0.367	-0.321	-0.49	1.44	0.359	-0.638	1.28	1.8	0.821	–	0.459	0.138	2.18	-0.435
UAUUGCACAUUACUAAGUUGC	0.064	-3.29	-0.69	–	1.19	0.647	0.0117	-0.36	0.521	–	0.119	-0.165	-0.436	-1.18
UCUCACACAGAAAUCGCACCCGUC	1	-0.236	-1.52	0.485	-1.33	-3.89	-0.241	0.283	0.199	0.123	-0.308	-0.669	0.106	–
UCUGCUCAUACCCCAUGGUUUCU	1.96	-0.521	-0.642	-1.65	-0.385	0.772	-0.849	-0.475	1.4	–	1.62	0.807	-0.101	0.623
UGAGGUAGGAGGUUGUAUAGU	0.75	0.127	0.649	0.624	-3.52	-2.75	-0.34	-0.642	-0.232	0.238	–	0.0915	-0.156	-3.52
UGAGGUAGUAGGUUGUAUGGUU	0.199	0.348	0.339	0.761	-4.05	-2.26	0.588	–	0.487	-0.072	–	-0.643	0.734	-3.88
UGAUUGUAGCCUUUUGGAGUAGA	1.26	-0.741	1.52	1.56	0.938	-1.19	-0.331	–	0.465	-0.496	-0.751	-0.415	-1.2	0.191
UGUAAACAUCCUCGACUGGAAG	-0.114	0.336	0.246	0.498	-0.46	-0.476	0.672	–	-2.11	–	0.575	-0.35	-1.69	0.0496
UGUAACAGCAACUCCAUGUGGA	0.232	-1.43	–	0.809	0.331	-1.28	-0.161	-0.0483	1.94	-2.2	-0.726	-0.515	0.401	-1.3
UGUCUUACUCCCUCAGGCACAU	0.202	1.02	-1.06	-0.229	-1.1	-0.519	-2.22	–	2.68	0.667	0.999	0.565	-0.976	-0.24
UUCUCCAAAAGGGAGCACUUUC	-0.958	-0.759	0.596	-0.361	0.94	-0.329	2.01	-0.166	-0.0417	–	1.31	-0.24	1.08	-0.381
UUGAAACAAUCUCUACUGAAC	-0.93	1.05	-0.263	-0.218	–	0.402	0.3	0.836	-1.21	0.857	-1.43	-0.126	0.917	0.163
UUGUGUCAAUAUGCGAUGAUGU	-0.078	-1.37	1.07	-0.649	-0.328	0.588	-0.212	–	0.901	-1.6	0.229	-0.384	0.639	0.77
UUUGGCACUAGCACAUUUUUGC	0.322	-1.69	0.722	–	0.288	0.306	-0.203	0.319	-0.863	0.531	0.451	-0.115	0.198	0.814
UUUGUGACCUGGUCCACUAACC	-0.491	-0.879	–	0.254	0.167	-1.92	-0.568	0.65	0.815	0	0.728	-1.6	0.152	0.358
